We go through 22 molecules from patent publication US8129389B2, “Substituted oxindole derivatives, medicaments containing the latter and use thereof” (Abbott GmbH & Co. KG, priority 2005, dated 2012).

For orientation: Ki means a dissociation constant, usually derived from enzyme kinetics or from competition with a known ligand.

Read-outs that look alike come from different tables or passages of the source. Some results are limits rather than exact numbers.

In this test the target is T1, human V1b receptors (Homo sapiens, UniProt P47901).
T1 construct: expressed in transfected cells
T1 sequence (P47901 1-424): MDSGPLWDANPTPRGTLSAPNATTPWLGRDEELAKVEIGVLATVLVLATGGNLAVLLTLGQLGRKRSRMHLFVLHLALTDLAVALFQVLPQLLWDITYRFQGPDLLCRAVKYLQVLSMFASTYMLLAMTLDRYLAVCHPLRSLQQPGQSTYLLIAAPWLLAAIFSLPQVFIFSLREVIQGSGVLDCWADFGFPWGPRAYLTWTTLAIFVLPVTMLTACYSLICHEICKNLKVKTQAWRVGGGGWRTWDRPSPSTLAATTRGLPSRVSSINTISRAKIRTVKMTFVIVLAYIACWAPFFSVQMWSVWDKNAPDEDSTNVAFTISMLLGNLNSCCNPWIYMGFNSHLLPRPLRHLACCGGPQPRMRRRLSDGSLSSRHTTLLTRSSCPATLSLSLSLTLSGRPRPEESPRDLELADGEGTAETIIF
Put plainly: Vasopressin V1b receptor binding assay. The procedure: Vasopressin V1b Receptor Binding Assay:
These DMSO solutions were diluted 1:10 with assay buffer. The substance concentration was further diluted 1:10 in the assay mixture.
The nonspecific binding was determined with 10^−6 M AVP. Determinations in triplicate were carried out.
The affinities for the human vasopressin V1b receptor were measured, and affinity constants determined, in the above assay for the inventive examples.
The affinities of the compounds (I) of the invention for the human vasopressin V1b receptor were measured in accordance with the above assays, and the affinity constants (Ki) were determined. Table 1 below details the V1b receptor affinity of selected compounds (+++ means <10 nM and ++ means 10-100 nM).

Setting [1] is: Table 1, human vasopressin V1b receptor affinity, read-out: V1b Ki.
Where [2] appears, read: membranes from CHO-K1 cells, 3H-AVP displacement, read-out: measured Ki values, affinities for the vasopressin V1b receptor.

Take `CCOc1ccccc1C1(OC(=O)N2CCN(c3ccncc3)CC2)C(=O)N(S(=O)(=O)c2ccccc2OC)c2ccc(C#N)cc21` (stereo not drawn) [Example 2, 5-Cyano-1-(2-methoxybenzenesulfonyl)-3-(2-ethoxyphenyl)-2-oxo-2,3-dihydro-1H-indol-3-yl 4-(pyridin-4-yl)piperazine-1-carboxylate]: the Ki under setting [1] lay within 10 to 100 nM and the Ki under setting [2] was less than 100 nM.
In the same order, the values of `CCOc1ccccc1C1(OC(=O)N2CCN(c3ccncc3)CC2)C(=O)N(S(=O)(=O)c2ccc(OC)cc2OC)c2ccc(C#N)cc21` (stereo not drawn) [Example 3, 5-Cyano-1-(2,4-dimethoxybenzenesulfonyl)-3-(2-ethoxyphenyl)-2-oxo-2,3-dihydro-1H-indol-3-yl 4-(pyridin-4-yl)piperazine-1-carboxylate] are less than 10 nM and less than 100 nM.
In the same order, the values of `CCOc1ccccc1C1(OC(=O)N2CCN(c3cc(C#N)ccn3)CC2)C(=O)N(S(=O)(=O)c2ccc(OC)cc2OC)c2ccc(C#N)cc21` (stereo not drawn) [Example 26, 1-(2,4-Dimethoxybenzenesulfonyl)-5-cyano-2-oxo-3-(2-ethoxyphenyl)-2,3-dihydro-1H-indol-3-yl 4-(4-cyanopyridin-2-yl)piperazine-1-carboxylate] are less than 10 nM and less than 100 nM.
For `CCOc1ccccc1C1(OC(=O)N2CCN(c3ccncc3)CC2)C(=O)N(S(=O)(=O)c2ccc([N+](=O)[O-])cc2)c2ccc(C#N)cc21` (stereo not drawn) [Example 19, 1-(4-Nitrobenzenesulfonyl)-5-cyano-2-oxo-3-(2-ethoxyphenyl)-2,3-dihydro-1H-indol-3-yl 4-(pyridin-4-yl)piperazine-1-carboxylate], the inhibition constant (Ki) was less than 10 nM under setting [1] and less than 100 nM under setting [2].
In the same order, the values of `CCOc1ccccc1C1(NC(=O)N2CCN(c3ncccn3)CC2)C(=O)N(S(=O)(=O)c2ccc(OC)cc2OC)c2ccc(C#N)cc21` (stereo not drawn) [Example 34, 4-(Pyrimidin-2-yl)piperazine-1-[1-(2,4-dimethoxybenzenesulfonyl)-5-cyano-2-oxo-3-(2-ethoxyphenyl)-2,3-dihydro-1H-indol-3-yl]carboxamide] are less than 10 nM and less than 100 nM.
On the same counts, the results for `CCOc1ccccc1C1(OC(=O)N2CCN(c3ccncc3)CC2)C(=O)N(S(=O)(=O)c2ccc(F)cc2)c2ccc(C#N)cc21` (stereo not drawn) [Example 21, 1-(4-Fluorobenzenesulfonyl)-5-cyano-2-oxo-3-(2-ethoxyphenyl)-2,3-dihydro-1H-indol-3-yl 4-(pyridin-4-yl)piperazine-1-carboxylate] are 10 to 100 nM and less than 100 nM.
In the same order, the values of `CCOc1ccccc1C1(NC(=O)N2CCN(c3ccncc3)CC2)C(=O)N(S(=O)(=O)c2ccccc2OC)c2ccc(C#N)cc21` (stereo not drawn) [Example 10, 4-(Pyridin-4-yl)piperazine-1-[1-(2-methoxybenzenesulfonyl)-5-cyano-2-oxo-3-(2-ethoxyphenyl)-2,3-dihydro-1H-indol-3-yl]carboxamide] are less than 10 nM and less than 100 nM.
Consider `CCOc1ccccc1C1(OC(=O)N2CCN(c3ncccn3)CC2)C(=O)N(S(=O)(=O)c2ccc(OC)cc2OC)c2ccc(C#N)cc21` (stereo not drawn) [Example 27, 1-(2,4-Dimethoxybenzenesulfonyl)-5-cyano-2-oxo-3-(2-ethoxyphenyl)-2,3-dihydro-1H-indol-3-yl 4-(pyrimidin-2-yl)piperazin-1-carboxylate], for which the Ki under setting [1] lay in the range of 10 to 100 nM and the Ki under setting [2] is less than 100 nM.
On the same counts, the results for `CCOc1ccccc1C1(NC(=O)N2CCN(c3ccncc3)CC2)C(=O)N(S(=O)(=O)c2ccc(F)cc2F)c2ccc(C#N)cc21` (stereo not drawn) [Example 13, 4-(Pyridin-4-yl)piperazine-1-[1-(2,4-difluorobenzenesulfonyl)-5-cyano-2-oxo-3-(2-ethoxyphenyl)-2,3-dihydro-1H-indol-3-yl]carboxamide] are 10 to 100 nM and less than 100 nM.
On the same counts, the results for `CCOc1ccccc1C1(NC(=O)N2CCN(c3nccs3)CC2)C(=O)N(S(=O)(=O)c2ccc(OC)cc2OC)c2ccc(C#N)cc21` (stereo not drawn) [Example 31, 4-(Thiazol-2-yl)piperazine-1-[1-(2,4-dimethoxybenzenesulfonyl)-5-cyano-2-oxo-3-(2-ethoxyphenyl)-2,3-dihydro-1H-indol-3-yl]carboxamide] are less than 10 nM and less than 100 nM.
In the same order, the values of `CCOc1ccccc1C1(NC(=O)N2CCN(c3ccncc3)CC2)C(=O)N(S(=O)(=O)c2ccc([N+](=O)[O-])cc2)c2ccc(C#N)cc21` (stereo not drawn) [Example 17, 4-(Pyridin-4-yl)piperazine-1-[1-(4-nitrobenzenesulfonyl)-5-cyano-2-oxo-3-(2-ethoxyphenyl)-2,3-dihydro-1H-indol-3-yl]carboxamide] are less than 10 nM and less than 100 nM.
As for `CCOc1ccccc1C1(OC(=O)N2CCN(c3ccncc3)CC2)C(=O)N(S(=O)(=O)c2ccc(C)cc2OC)c2ccc(C#N)cc21` (stereo not drawn) [Example 20], the inhibition constant (Ki) is less than 10 nM under setting [1] and less than 100 nM under setting [2].
With `CCOc1ccccc1C1(NC(=O)N2CCN(c3ccc(C#N)cn3)CC2)C(=O)N(S(=O)(=O)c2ccccc2F)c2ccc(C#N)cc21` (stereo not drawn) [Example 49, 4-(5-Cyanopyridin-2-yl)piperazin-1-[1-(2-fluorobenzenesulfonyl)-5-cyano-2-oxo-3-(2-ethoxyphenyl)-2,3-dihydro-1H-indol-3-yl]carboxamide], under setting [2], the Ki was less than 100 nM.
As for `CCOc1ccccc1C1(NC(=O)N2CCN(c3ccncc3)CC2)C(=O)N(S(=O)(=O)c2ccccc2)c2ccc(C#N)cc21` (stereo not drawn) [Example 11, 4-(Pyridin-4-yl)piperazine-1-[1-benzenesulfonyl-5-cyano-2-oxo-3-(2-ethoxyphenyl)-2,3-dihydro-1H-indol-3-yl]carboxamide], the Ki is, setting by setting: under setting [1], 10 to 100 nM; under setting [2], less than 100 nM.
In the same order, the values of `CCOc1ccccc1C1(NC(=O)N2CCN(c3ccc(C#N)cn3)CC2)C(=O)N(S(=O)(=O)c2ccc([N+](=O)[O-])cc2)c2ccc(C#N)cc21` (stereo not drawn) [Example 43, 4-(5-Cyanopyridin-2-yl)piperazine-1-[1-(4-nitrobenzenesulfonyl)-5-cyano-2-oxo-3-(2-ethoxyphenyl)-2,3-dihydro-1H-indol-3-yl]carboxamide] are 10 to 100 nM and less than 100 nM.
On the same counts, the results for `CCOc1ccccc1C1(NC(=O)N2CCN(c3ccncc3)CC2)C(=O)N(S(=O)(=O)c2ccc(OC)cc2OC)c2ccc(C#N)cc21` (stereo not drawn) [Example 16, 4-(Pyridin-4-yl)piperazine-1-[1-(2,4-dimethoxybenzenesulfonyl)-5-cyano-2-oxo-3-(2-ethoxyphenyl)-2,3-dihydro-1H-indol-3-yl]carboxamide] are less than 10 nM and less than 100 nM.
On the same counts, the results for `CCOc1ccccc1C1(OC(=O)N2CCN(c3ccncc3)CC2)C(=O)N(S(=O)(=O)c2ccccc2F)c2ccc(C#N)cc21` (stereo not drawn) [Example 8, 5-Cyano-1-(2-fluorobenzenesulfonyl)-3-(2-ethoxyphenyl)-2-oxo-2,3-dihydro-1H-indol-3-yl 4-(pyridin-4-yl)piperazine-1-carboxylate] are 10 to 100 nM and less than 100 nM.
Consider `CCOc1ccccc1C1(NC(=O)N2CCN(c3ccncc3)CC2)C(=O)N(S(=O)(=O)c2ccc(C)cc2OC)c2ccc(C#N)cc21` (stereo not drawn) [Example 15, 4-(Pyridin-4-yl)piperazine-1-[1-(2-methoxy-4-methylbenzenesulfonyl)-5-cyano-2-oxo-3-(2-ethoxyphenyl)-2,3-dihydro-1H-indol-3-yl]carboxamide], for which the Ki was less than 10 nM under setting [1] and less than 100 nM under setting [2].
On the same counts, the results for `CCOc1ccccc1C1(NC(=O)N2CCN(c3ccncc3)CC2)C(=O)N(S(=O)(=O)c2ccccc2F)c2ccc(C#N)cc21` (stereo not drawn) [Example 12, 4-(Pyridin-4-yl)piperazine-1-[1-(2-fluorobenzenesulfonyl)-5-cyano-2-oxo-3-(2-ethoxyphenyl)-2,3-dihydro-1H-indol-3-yl]carboxamide] are less than 10 nM and less than 100 nM.
Turning to `CCOc1ccccc1C1(NC(=O)N2CCN(c3cnccn3)CC2)C(=O)N(S(=O)(=O)c2ccc(OC)cc2OC)c2ccc(C#N)cc21` (stereo not drawn) [Example 35, 4-(Pyrazin-2-yl)piperazine-1-[1-(2,4-dimethoxybenzenesulfonyl)-5-cyano-2-oxo-3-(2-ethoxyphenyl)-2,3-dihydro-1H-indol-3-yl]carboxamide], the Ki under setting [1] is 10 to 100 nM and the Ki under setting [2] was less than 100 nM.
Turning to `CCOc1ccccc1C1(NC(=O)N2CCN(c3ccc(C#N)cn3)CC2)C(=O)N(S(=O)(=O)c2ccc(C#N)cc2)c2ccc(C#N)cc21` (stereo not drawn) [Example 50, 4-(5-Cyanopyridin-2-yl)piperazine-1-[1-(4-cyanobenzenesulfonyl)-5-cyano-2-oxo-3-(2-ethoxyphenyl)-2,3-dihydro-1H-indol-3-yl]carboxamide], under setting [1], the Ki fell in the range of 10 to 100 nM.
Turning to `CCOc1ccccc1C1(NC(=O)N2CCN(c3ncccc3C)CC2)C(=O)N(S(=O)(=O)c2ccc(OC)cc2OC)c2ccc(C#N)cc21` (stereo not drawn) [Example 32, 4-(3-Methylpyridin-2-yl)piperazine-1-[1-(2,4-dimethoxybenzenesulfonyl)-5-cyano-2-oxo-3-(2-ethoxyphenyl)-2,3-dihydro-1H-indol-3-yl]carboxamide], the Ki was 10 to 100 nM under setting [1] and less than 100 nM under setting [2].
